Data published in patent US20240083897A1, “GCN2 MODULATING COMPOUNDS AND USES THEREOF” (HiberCell, Inc., priority 2021, published 2024).

What follows are molecules tested against GCN2 (Homo sapiens (Human), UniProt Q9P2K8) (assay: TR-FRET biochemical assay for inhibition of GCN2). Conditions: not given.
GCN2, sequence (Q9P2K8 whole entry): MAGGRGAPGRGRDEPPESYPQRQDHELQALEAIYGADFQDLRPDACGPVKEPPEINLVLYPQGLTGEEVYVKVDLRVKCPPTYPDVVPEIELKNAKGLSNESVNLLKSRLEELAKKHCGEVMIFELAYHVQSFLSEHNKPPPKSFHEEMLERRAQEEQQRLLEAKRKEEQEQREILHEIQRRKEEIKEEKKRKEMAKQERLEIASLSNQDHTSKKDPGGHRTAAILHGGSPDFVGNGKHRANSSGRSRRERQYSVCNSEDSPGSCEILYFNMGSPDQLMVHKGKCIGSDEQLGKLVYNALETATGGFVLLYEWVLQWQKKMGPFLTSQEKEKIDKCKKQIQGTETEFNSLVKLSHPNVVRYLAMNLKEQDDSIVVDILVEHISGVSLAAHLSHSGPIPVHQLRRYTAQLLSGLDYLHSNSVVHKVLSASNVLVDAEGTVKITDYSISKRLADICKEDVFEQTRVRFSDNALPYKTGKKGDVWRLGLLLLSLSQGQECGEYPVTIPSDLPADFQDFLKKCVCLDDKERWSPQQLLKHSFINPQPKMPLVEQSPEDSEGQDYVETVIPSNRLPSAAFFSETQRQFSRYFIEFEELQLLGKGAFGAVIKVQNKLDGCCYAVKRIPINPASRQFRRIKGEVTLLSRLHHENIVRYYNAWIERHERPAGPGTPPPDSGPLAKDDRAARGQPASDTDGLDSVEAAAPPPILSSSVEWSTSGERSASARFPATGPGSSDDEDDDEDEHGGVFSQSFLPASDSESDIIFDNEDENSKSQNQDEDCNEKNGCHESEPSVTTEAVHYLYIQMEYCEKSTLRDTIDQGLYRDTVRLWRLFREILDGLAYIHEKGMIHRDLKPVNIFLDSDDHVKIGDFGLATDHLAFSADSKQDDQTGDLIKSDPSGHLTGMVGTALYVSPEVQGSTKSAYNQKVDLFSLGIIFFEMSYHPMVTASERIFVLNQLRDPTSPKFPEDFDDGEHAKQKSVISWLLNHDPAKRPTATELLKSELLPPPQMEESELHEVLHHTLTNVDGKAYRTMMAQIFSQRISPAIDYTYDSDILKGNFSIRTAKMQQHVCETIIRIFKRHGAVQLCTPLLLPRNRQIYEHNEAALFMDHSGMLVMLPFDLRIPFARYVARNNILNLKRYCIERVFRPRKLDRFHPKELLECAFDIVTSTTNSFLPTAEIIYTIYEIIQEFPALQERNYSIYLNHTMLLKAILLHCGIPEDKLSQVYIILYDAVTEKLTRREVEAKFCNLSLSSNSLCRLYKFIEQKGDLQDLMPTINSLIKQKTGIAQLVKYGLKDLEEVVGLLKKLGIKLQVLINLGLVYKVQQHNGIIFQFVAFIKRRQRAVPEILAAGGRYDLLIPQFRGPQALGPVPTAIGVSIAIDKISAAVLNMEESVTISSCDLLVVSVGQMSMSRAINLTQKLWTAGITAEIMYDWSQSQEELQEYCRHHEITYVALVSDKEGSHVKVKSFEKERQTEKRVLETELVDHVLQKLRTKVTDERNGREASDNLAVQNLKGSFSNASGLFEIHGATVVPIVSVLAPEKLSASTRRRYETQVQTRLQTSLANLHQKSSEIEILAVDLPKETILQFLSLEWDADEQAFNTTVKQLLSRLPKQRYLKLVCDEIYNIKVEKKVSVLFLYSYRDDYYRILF

**Q.** How did the IC50 turn out when `COc1ncc(C#N)cc1S(=O)(=O)Nc1ccc(F)c(-c2ccc3c(-c4ccn(C)n4)ncn3c2)c1F` [Compound 53, 5-cyano-N-[2,4-difluoro-3-[1-(1-methylpyrazol-3-yl)imidazo[1,5-a]pyridin-6-yl]phenyl]-2-methoxypyridine-3-sulfonamide] was run?
**A.** 50 to 500 nM

**Q.** With `Cc1ncc(F)cc1S(=O)(=O)Nc1ccc(F)c(-c2ccc3c(-c4ccn(C)n4)ncn3c2)c1F` [Compound 54, N-[2,4-difluoro-3-[1-(1-methylpyrazol-3-yl)imidazo[1,5-a]pyridin-6-yl]phenyl]-5-fluoro-2-methylpyridine-3-sulfonamide] as the molecule, how does the IC50 read?
**A.** 50 to 500 nM

**Q.** Which IC50 does the source give for `COc1ncc(Cl)cc1S(=O)(=O)Nc1ccc(F)c(-c2ccc3c(-n4nccn4)ncn3c2)c1F` [Compound 55-2, 5-chloro-N-[2,4-difluoro-3-[1-(1,2,3-triazol-2-yl)imidazo[1,5-a]pyridin-6-yl]phenyl]-2-methoxypyridine-3-sulfonamide] here?
**A.** 500 to 1000 nM

Same assay, conditions: GCN2 2 nM, 100 nM GFP-eIF2a, 150 μM ATP, TR-FRET

**Q.** With `COc1ncc(F)cc1S(=O)(=O)Nc1ccc(F)c(-c2ccn3c(-c4ncc[nH]4)ncc3c2)c1F` [Compound 36, N-[2,4-difluoro-3-[3-(1H-imidazol-2-yl)imidazo[1,5-a]pyridin-7-yl]phenyl]-5-fluoro-2-methoxypyridine-3-sulfonamide] as the molecule, how does the IC50 read?
**A.** < 50 nM

**Q.** For `COc1ncc(Cl)cc1S(=O)(=O)Nc1ccc(F)c(-c2ccc3c(-c4ccn(C)n4)ncn3c2)c1F` [Compound 37, 5-chloro-N-[2,4-difluoro-3-[1-(1-methylpyrazol-3-yl)imidazo[1,5-a]pyridin-6-yl]phenyl]-2-methoxypyridine-3-sulfonamide], which IC50 is on record?
**A.** < 50 nM

**Q.** With `COc1ncc(Cl)cc1S(=O)(=O)Nc1ccc(F)c(-c2ccc3c(-c4ncc[nH]4)ncn3c2)c1C#N` [Compound 38, 5-chloro-N-[2-cyano-4-fluoro-3-[1-(1H-imidazol-2-yl)imidazo[1,5-a]pyridin-6-yl]phenyl]-2-methoxypyridine-3-sulfonamide] as the molecule, how does the IC50 read?
**A.** < 50 nM

**Q.** How did the IC50 turn out when `N#Cc1cc2c(c(S(=O)(=O)Nc3ccc(F)c(-c4ccc5c(-c6ncc[nH]6)ncn5c4)c3F)c1)CCC2O` (stereo not drawn) [Compound 39, 6-cyano-N-[2,4-difluoro-3-[1-(1H-imidazol-2-yl)imidazo[1,5-a]pyridin-6-yl]phenyl]-1-hydroxy-2,3-dihydro-1H-indene-4-sulfonamide] was run?
**A.** < 50 nM

**Q.** How did the IC50 turn out when `COc1ncc(C#N)cc1S(=O)(=O)Nc1ccc(F)c(-c2ccn3c(-c4ncc[nH]4)ncc3c2)c1F` [Compound 40, 5-cyano-N-[2,4-difluoro-3-[3-(1H-imidazol-2-yl)imidazo[1,5-a]pyridin-7-yl]phenyl]-2-methoxypyridine-3-sulfonamide] was run?
**A.** < 50 nM

**Q.** `COc1ncc(Cl)cc1S(=O)(=O)Nc1ccc(F)c(-c2ccn3c(-c4ncc[nH]4)ncc3c2F)c1F` [Compound 41, 5-chloro-N-[2,4-difluoro-3-[8-fluoro-3-(1H-imidazol-2-yl)imidazo[1,5-a]pyridin-7-yl]phenyl]-2-methoxypyridine-3-sulfonamide] was tested. Which IC50 did it give?
**A.** < 50 nM

**Q.** For `COc1ncc(C#N)cc1S(=O)(=O)Nc1ccc(F)c(-c2ccn3c(-c4ncc[nH]4)ncc3c2F)c1F` [Compound 42, 5-cyano-N-[2,4-difluoro-3-[8-fluoro-3-(1H-imidazol-2-yl)imidazo[1,5-a]pyridin-7-yl]phenyl]-2-methoxypyridine-3-sulfonamide], which IC50 is on record?
**A.** < 50 nM

**Q.** How did the IC50 turn out when `COc1ncc(Cl)cc1S(=O)(=O)Nc1ccc(F)c(-c2ccc3c(-c4nc(C#N)c[nH]4)ncn3c2)c1F` [Compound 43, N-[3-[1-(4-cyano-1H-imidazol-2-yl)imidazo[1,5-a]pyridin-6-yl]-2,4-difluorophenyl]-5-chloro-2-methoxypyridine-3-sulfonamide] was run?
**A.** < 50 nM

**Q.** How did the IC50 turn out when `Cc1ncc(F)cc1S(=O)(=O)Nc1ccc(F)c(-c2ccc3c(-c4nc(C#N)c[nH]4)ncn3c2)c1F` [Compound 44, N-[3-[1-(4-cyano-1H-imidazol-2-yl)imidazo[1,5-a]pyridin-6-yl]-2,4-difluorophenyl]-5-fluoro-2-methylpyridine-3-sulfonamide] was run?
**A.** < 50 nM

**Q.** `COc1ncc(F)cc1S(=O)(=O)Nc1ccc(F)c(-c2ccc3c(-c4nc(Cl)c[nH]4)ncn3c2)c1F` [Compound 45, N-[3-[1-(4-chloro-1H-imidazol-2-yl)imidazo[1,5-a]pyridin-6-yl]-2,4-difluorophenyl]-5-fluoro-2-methoxypyridine-3-sulfonamide] was tested. Which IC50 did it give?
**A.** < 50 nM

**Q.** With `COc1ncc(F)cc1S(=O)(=O)Nc1ccc(F)c(-c2ccc3c(-c4ccn(C)n4)ncn3c2)c1F` [Compound 46, N-[2,4-difluoro-3-[1-(1-methylpyrazol-3-yl)imidazo[1,5-a]pyridin-6-yl]phenyl]-5-fluoro-2-methoxypyridine-3-sulfonamide] as the molecule, how does the IC50 read?
**A.** < 50 nM

**Q.** With `COc1ncc(F)cc1S(=O)(=O)Nc1ccc(F)c(-c2ccn3c(-c4ncc[nH]4)ncc3c2F)c1F` [Compound 47, N-[2,4-difluoro-3-[8-fluoro-3-(1H-imidazol-2-yl)imidazo[1,5-a]pyridin-7-yl]phenyl]-5-fluoro-2-methoxypyridine-3-sulfonamide] as the molecule, how does the IC50 read?
**A.** < 50 nM

**Q.** Which IC50 does the source give for `COc1ncc(Cl)cc1S(=O)(=O)Nc1ccc(F)c(-c2ccc3c(-c4ncc(C)[nH]4)ncn3c2)c1F` [Compound 48, 5-chloro-N-[2,4-difluoro-3-[1-(4-methyl-3H-imidazol-2-yl)imidazo[1,5-a]pyridine-6-yl]phenyl]-2-methoxypyridine-3-sulfonamide] here?
**A.** < 50 nM

**Q.** Which IC50 does the source give for `COc1ncc(Cl)cc1S(=O)(=O)Nc1ccc(F)c(-c2ccc3c(-c4ncc(CO)[nH]4)ncn3c2)c1F` [Compound 49, 5-chloro-N-(2,4-difluoro-3-[1-[4-(hydroxymethyl)-3H-imidazol-2-yl]imidazo[1,5-a]pyridin-6-yl]phenyl)-2-methoxypyridine-3-sulfonamide] here?
**A.** < 50 nM

**Q.** For `Cc1cnc(-c2ncn3cc(-c4c(F)ccc(NS(=O)(=O)c5cc(F)cnc5C)c4F)ccc23)[nH]1` [Compound 50, N-[2,4-difluoro-3-[1-(4-methyl-3H-imidazol-2-yl)imidazo[1,5-a]pyridin-6-yl]phenyl]-5-fluoro-2-methylpyridine-3-sulfonamide], which IC50 is on record?
**A.** < 50 nM

**Q.** For `Cc1ncc(F)cc1S(=O)(=O)Nc1ccc(F)c(-c2ccc3c(-c4ncc(CO)[nH]4)ncn3c2)c1F` [Compound 51, N-(2,4-difluoro-3-[1-[4-(hydroxymethyl)-3H-imidazol-2-yl]imidazo[1,5-a]pyridin-6-yl]phenyl)-5-fluoro-2-methylpyridine-3-sulfonamide], which IC50 is on record?
**A.** < 50 nM

**Q.** With `COc1ncc(Cl)cc1S(=O)(=O)Nc1ccc(F)c(-c2ccc3c(-c4nc(Cl)c[nH]4)ncn3c2)c1F` [Compound 52, 5-chloro-N-[3-[1-(4-chloro-1H-imidazol-2-yl)imidazo[1,5-a]pyridin-6-yl]-2,4-difluorophenyl]-2-methoxypyridine-3-sulfonamide] as the molecule, how does the IC50 read?
**A.** < 50 nM

**Q.** For `COc1ncc(Cl)cc1S(=O)(=O)Nc1ccc(F)c(-c2ccc3c(-n4ccnn4)ncn3c2)c1F` [Compound 55-1, 5-chloro-N-[2,4-difluoro-3-[1-(1,2,3-triazol-1-yl)imidazo[1,5-a]pyridin-6-yl]phenyl]-2-methoxypyridine-3-sulfonamide], which IC50 is on record?
**A.** < 50 nM

**Q.** With `Cc1cnc(-c2ncn3cc(-c4c(F)ccc(NS(=O)(=O)c5cc(Cl)cnc5C)c4F)ccc23)[nH]1` [Compound 56, 5-chloro-N-[2,4-difluoro-3-[1-(4-methyl-3H-imidazol-2-yl)imidazo[1,5-a]pyridine-6-yl]phenyl]-2-methylpyridine-3-sulfonamide] as the molecule, how does the IC50 read?
**A.** < 50 nM

**Q.** How did the IC50 turn out when `COc1ncc(Cl)cc1S(=O)(=O)Nc1ccc(F)c(-c2ccc3c(-c4nnc(C)[nH]4)ncn3c2)c1F` [Compound 57, 5-chloro-N-[2,4-difluoro-3-[1-(5-methyl-4H-1,2,4-triazol-3-yl)imidazo[1,5-a]pyridin-6-yl]phenyl]-2-methoxypyridine-3-sulfonamide] was run?
**A.** < 50 nM

**Q.** With `COc1ncc(F)cc1S(=O)(=O)Nc1ccc(F)c(-c2ccc3c(-c4nnc(C)[nH]4)ncn3c2)c1F` [Compound 58, N-[2,4-difluoro-3-[1-(5-methyl-4H-1,2,4-triazol-3-yl)imidazo[1,5-a]pyridin-6-yl]phenyl]-5-fluoro-2-methoxypyridine-3-sulfonamide] as the molecule, how does the IC50 read?
**A.** < 50 nM

**Q.** `COc1ncc(C#N)cc1S(=O)(=O)Nc1ccc(F)c(-c2ccc3c(-c4nnc(C)[nH]4)ncn3c2)c1F` [Compound 59, 5-cyano-N-[2,4-difluoro-3-[1-(5-methyl-4H-1,2,4-triazol-3-yl)imidazo[1,5-a]pyridin-6-yl]phenyl]-2-methoxypyridine-3-sulfonamide] was tested. Which IC50 did it give?
**A.** < 50 nM

**Q.** For `Cc1nnc(-c2ncn3cc(-c4c(F)ccc(NS(=O)(=O)c5cc(F)cnc5C)c4F)ccc23)[nH]1` [Compound 60, N-[2,4-difluoro-3-[1-(5-methyl-4H-1,2,4-triazol-3-yl)imidazo[1,5-a]pyridin-6-yl]phenyl]-5-fluoro-2-methylpyridine-3-sulfonamide], which IC50 is on record?
**A.** < 50 nM

**Q.** Which IC50 does the source give for `Cc1nnc(-c2ncn3cc(-c4c(F)ccc(NS(=O)(=O)c5cc(Cl)cnc5C)c4F)ccc23)[nH]1` [Compound 61, 5-chloro-N-[2,4-difluoro-3-[1-(5-methyl-4H-1,2,4-triazol-3-yl)imidazo[1,5-a]pyridin-6-yl]phenyl]-2-methylpyridine-3-sulfonamide] here?
**A.** < 50 nM

**Q.** With `Cc1ncc(Cl)cc1S(=O)(=O)Nc1ccc(F)c(-c2ccc3c(-c4ccn(C)n4)ncn3c2)c1F` [Compound 62, 5-chloro-N-[2,4-difluoro-3-[1-(1-methylpyrazol-3-yl)imidazo[1,5-a]pyridin-6-yl]phenyl]-2-methylpyridine-3-sulfonamide] as the molecule, how does the IC50 read?
**A.** < 50 nM

**Q.** For `COc1ncc(Cl)cc1S(=O)(=O)Nc1ccc(F)c(-c2ccc3c(-n4cnnn4)ncn3c2)c1F` [Compound 63, 5-chloro-N-[2,4-difluoro-3-[1-(1,2,3,4-tetrazol-1-yl)imidazo[1,5-a]pyridin-6-yl]phenyl]-2-methoxypyridine-3-sulfonamide], which IC50 is on record?
**A.** < 50 nM

**Q.** With `COc1ncc(Cl)cc1S(=O)(=O)Nc1ccc(F)c([C@@H]2CCn3c(cnc3-c3ncc[nH]3)C2)c1F` [Compound 64-1, (R)—N-(3-(3-(1H-imidazol-2-yl)-5,6,7,8-tetrahydroimidazo[1,5-a]pyridin-7-yl)-2,4-difluorophenyl)-5-chloro-2-methoxypyridine-3-sulfonamide] as the molecule, how does the IC50 read?
**A.** < 50 nM
